Source: patent US20250333397A1 (REMIX THERAPEUTICS INC., priority 2021, published 2025)
Like-named read-outs stand apart in the source and are kept apart here.

Tests used:
Format in all cases: cell-based, human
Target C mRNA = test: RT-qPCR splicing assay panel, Target C canonical junction (CJ) mRNA; settings: canonical junction (CJ) mRNA, RT-qPCR panel, Table 4A, read-out: Target C, decrease in CJ mRNA levels, IC50
Experimental: (§1) Compounds described herein were used to modulate RNA transcript abundance in cells. The expression of a target mRNA was measured by detecting the formation of an exon-exon junction in the canonical transcript (CJ). A compound mediated exon-inclusion event was detected by observing an increase in formation of a new junction with an alternative exon (AJ). Real-time qPCR assays were used to detect these splicing switches and interrogate the potency of various compounds towards different target genes. A high-throughput real time quantitative PCR (RT-qPCR) assay was developed to measure these two isoforms of the mRNA (CJ and AJ) for exemplary genes, such as HTT, SMN2, and MYB, together with a control housekeeping gene, GAPDH or GUSB or PPIA, used for normalization. Briefly, the A673 or K562 cell line was treated with various compounds described herein (e.g., compounds of Formula (I), (II), (III), (IV)). After treatment, the levels of the HTT, MYB, or SMN2 mRNA targets were determined from each sample of cell lysate by cDNA synthesis followed by qPCR.
(§2) The A673 cell line was cultured in DMEM with 10% FBS. Cells were diluted with full growth media and plated in a 96-well plate (15,000 cells in 100ul media per well). The plate was incubated at 37° C. with 5% CO2 for 24 hours to allow cells to adhere. An 11-point 3-fold serial dilution of the compounds was made in DMSO then diluted in media in an intermediate plate. Compounds were transferred from the intermediate plate to the cell plate with the top dose at a final concentration of 10 uM in the well. Final DMSO concentration was kept at or below 0.25%. The cell plate was returned to the incubator at 37° C. with 5% CO2 for an additional 24 hours.
(§3) The K562 cell line was cultured in IMDM with 10% FBS. For K562, cells were diluted with full growth media and plated in either a 96-well plate (50,000 cells in 50 uL media per well) or a 384-well plate (8,000-40,000 cells in 45 uL media per well). An 11-point 3-fold serial dilution of the compounds were made in DMSO then diluted in media in an intermediate plate.
(§4) Compound was transferred from the intermediate plate to the cell plate with the top dose at a final concentration of 10 uM in the well. Final DMSO concentration was kept at or below 0.25%.
(§5) Final volume was 100 uL for 96-well plate and 50 uL for 384-well plate. The cell plate was then placed in an incubator at 37° C. with 5% CO2 for 24 hours.
(§6) The cells were then gently washed with 50 uL-100 uL cold PBS before proceeding to addition of lysis buffer. 30 uL-50 μL of room temperature lysis buffer with DNAse I (and optionally RNAsin) was added to each well. Cells were shaken/mixed thoroughly at room temperature for 5-10 minutes for lysis to take place and then 3 uL-5 μL of room temperature stop solution was added and wells were shaken/mixed again. After 2-5 minutes, the cell lysate plate was transferred to ice for RT-qPCR reaction setup. The lysates could also be frozen at −80° C. for later use.
(§7) In some cases, a direct lysis buffer was used. An appropriate volume of 3× lysis buffer (10 mM Tris, 150 mM NaCl, 1.5%-2.5% Igepal and 0.1-1 U/uL RNAsin, pH 7.4) was directly added to either K562 or A673 cells in media and mixed by pipetting 3 times. The plates were then incubated at room temperature with shaking/rocking for 20-50 minutes to allow for lysis to take place. After this time, the cell lysate plate was transferred to ice to set up for the RT-qPCR reactions. The lysates could also be frozen at −80° C. for later use.
(§8) To set up 10 uL RT-qPCR reactions, cell lysates were transferred to 384-well qPCR plates containing the master mix according to the table below. The plates were sealed, gently vortexed, and spun down before the run. The volumes were adjusted accordingly in some instances where the reaction was carried in 20 μL. The table below summarizes the components of the RT-qPCR reactions: […]

HTT mRNA = test: RT-qPCR splicing assay, HTT canonical (CJ) and alternative (AJ) junction mRNA; settings: for AC50: read-out: HTT AJ (AC50, increase in AJ mRNA)
Experimental: as §1, §2, §3, §4, §5, §6, §7, §8

MYB mRNA = test: RT-qPCR splicing assay, MYB canonical (CJ) and alternative (AJ) junction mRNA; settings: for AC50: read-out: MYB AJ (AC50, increase in AJ mRNA)
Experimental: as §1, §2, §3, §4, §5, §6, §7, §8

SMN2 mRNA = test: RT-qPCR splicing assay panel, SMN2 canonical junction (CJ) mRNA; settings: canonical junction (CJ) mRNA, RT-qPCR panel, Table 4A, read-out: SMN2, decrease in CJ mRNA levels, IC50
Experimental: as §1, §2, §3, §4, §5, §6, §7, §8

[1] = Homo sapiens, 24 h, Table 3A, A673 or K562 cells, 24 h treatment
[2] = Homo sapiens, 24 h, Table 3A, A673 or K562 cells, 24 h treatment, read-out: HTT CJ (IC50, decrease in CJ mRNA)
[3] = Homo sapiens, canonical junction (CJ) mRNA, RT-qPCR panel, Table 4A, read-out: HTT, decrease in CJ mRNA levels, IC50
[4] = Homo sapiens, 24 h, Table 3A, A673 or K562 cells, 24 h treatment, read-out: MYB CJ (IC50, decrease in CJ mRNA)
[5] = Homo sapiens, canonical junction (CJ) mRNA, RT-qPCR panel, Table 4A, read-out: MYB, decrease in CJ mRNA levels, IC50
[6] = Table 3A, A673 or K562 cells, 24 h treatment
[7] = Table 3A, A673 or K562 cells, 24 h treatment, read-out: HTT CJ (IC50, decrease in CJ mRNA)
[8] = canonical junction (CJ) mRNA, RT-qPCR panel, Table 4A, read-out: HTT, decrease in CJ mRNA levels, IC50
[9] = Table 3A, A673 or K562 cells, 24 h treatment, read-out: MYB CJ (IC50, decrease in CJ mRNA)
[10] = canonical junction (CJ) mRNA, RT-qPCR panel, Table 4A, read-out: MYB, decrease in CJ mRNA levels, IC50

IC50 (Target C mRNA; Homo sapiens) [µM]	IC50 (HTT mRNA; [2]) [µM]	IC50 (HTT mRNA; [3]) [µM]	IC50 (MYB mRNA; [4]) [µM]	IC50 (MYB mRNA; [5]) [µM]	IC50 (SMN2 mRNA; Homo sapiens) [µM]	IC50 (Target C mRNA) [µM]	IC50 (HTT mRNA; [7]) [µM]	IC50 (HTT mRNA; [8]) [µM]	IC50 (MYB mRNA; [9]) [µM]	IC50 (MYB mRNA; [10]) [µM]	IC50 (SMN2 mRNA) [µM]	Structure (SMILES)	AC50 (HTT mRNA; [1]) [µM]	AC50 (MYB mRNA; [1]) [µM]	AC50 (HTT mRNA; [6]) [µM]	AC50 (MYB mRNA; [6]) [µM]
< 0.1	< 0.1	< 0.1	0.1 to 1	0.1 to 1	< 0.1	–	–	–	–	–	–	Oc1cc(-c2cn[nH]c2)c(F)cc1-c1ccc(N2CCC(NC3CC3)C2)nn1 (stereo in doubt) [Compound 105, 2-{6-[(3R)-3-(cyclopropylamino)pyrrolidin-1-yl]pyridazin-3-yl}-4-fluoro-5-(1H-pyrazol-4-yl)phenol]	< 0.1	0.1 to 1	–	–
< 0.1	< 0.1	< 0.1	< 0.1	< 0.1	< 0.1	–	–	–	–	–	–	CN(C1CCN(c2ccc(-c3cc(F)c(-c4cn[nH]c4)cc3O)nn2)C1)C(C)(C)C (stereo in doubt) [Compound 119, 2-{6-[(3S)-3-[tert-butyl(methyl)amino]pyrrolidin-1-yl]pyridazin-3-yl}-4-fluoro-5-(1H-pyrazol-4-yl)phenol]	< 0.1	< 0.1	–	–
< 0.1	< 0.1	< 0.1	< 0.1	< 0.1	< 0.1	–	–	–	–	–	–	CN(C1CCN(c2ccc(-c3cc(F)c(-c4cn[nH]c4)cc3O)nn2)C1)C(C)(C)C (stereo in doubt) [Compound 120, 2-{6-[(3R)-3-[tert-butyl(methyl)amino]pyrrolidin-1-yl]pyridazin-3-yl}-4-fluoro-5-(1H-pyrazol-4-yl)phenol]	< 0.1	< 0.1	–	–
0.1 to 1	0.1 to 1	0.1 to 1	0.1 to 1	0.1 to 1	< 0.1	–	–	–	–	–	–	COc1cc(-c2ccc(-c3ccc(N4CC(F)[C@@H](NC(C)(C)C)C4)nn3)c(O)c2)cnn1 (stereo in doubt) [Compound 217, 2-{6-[(3S,4R)-3-(tert-butylamino)-4-fluoropyrrolidin-1-yl]pyridazin-3-yl}-5-(6-methoxypyridazin-4-yl)phenol]	0.1 to 1	1 to 10	–	–
0.1 to 1	0.1 to 1	0.1 to 1	0.1 to 1	0.1 to 1	< 0.1	–	–	–	–	–	–	COc1cc(-c2ccc(-c3ccc(N4CCC(CNC5CCC5)C4)nn3)c(O)c2)cnn1 (stereo in doubt) [Compound 441, 2-{6-[(3S)-3-[(cyclobutylamino)methyl]pyrrolidin-1-yl]pyridazin-3-yl}-5-(6-methoxypyridazin-4-yl)phenol]	0.1 to 1	0.1 to 1	–	–
–	–	–	–	–	–	< 0.1	< 0.1	< 0.1	0.1 to 1	0.1 to 1	< 0.1	Oc1cc(-c2cn[nH]c2)ccc1-c1ccc(N2CCC(NC3CC3)C2)nn1 (stereo not drawn) [Compound 100, 2-(6-(3-(cyclopropylamino)pyrrolidin-1-yl)pyridazin-3-yl)-5-(1H-pyrazol-4-yl)phenol]	–	–	< 0.1	0.1 to 1
< 0.1	< 0.1	< 0.1	< 0.1	< 0.1	< 0.1	–	–	–	–	–	–	CC(C)(C)N[C@H]1CCN(c2ccc(-c3ccc(-c4cn[nH]c4)cc3O)nn2)C1 [Compound 101, 2-{6-[(3S)-3-(tert-butylamino)pyrrolidin-1-yl]pyridazin-3-yl}-5-(1H-pyrazol-4-yl)phenol]	< 0.1	< 0.1	–	–
–	–	–	–	–	–	> 10	> 10	> 10	> 10	> 10	1 to 10	Oc1cc(-c2cn[nH]c2)ccc1-c1ccc(N2CCC(NC3CC3)C2)nn1 (stereo not drawn) [Compound 102, 2-(6-(3-(cyclopropylamino)pyrrolidin-1-yl)pyridazin-3-yl)-5-(1H-pyrazol-4-yl)phenol]	–	–	> 10	> 10
0.1 to 1	< 0.1	< 0.1	0.1 to 1	0.1 to 1	< 0.1	–	–	–	–	–	–	Oc1cc(-c2cn[nH]c2)ccc1-c1ccc(N2CC[C@H](NC3CC3)C2)nn1 [Compound 104, 2-{6-[(3S)-3-(cyclopropylamino)pyrrolidin-1-yl]pyridazin-3-yl}-5-(1H-pyrazol-4-yl)phenol; ethane]	< 0.1	0.1 to 1	–	–
0.1 to 1	< 0.1	< 0.1	0.1 to 1	0.1 to 1	< 0.1	–	–	–	–	–	–	Oc1cc(-c2cn[nH]c2)c(F)cc1-c1ccc(N2CC[C@@H](NC3CC3)C2)nn1 [Compound 106, 2-{6-[(3R)-3-(cyclopropylamino)pyrrolidin-1-yl]pyridazin-3-yl}-4-fluoro-5-(1H-pyrazol-4-yl)phenol]	< 0.1	0.1 to 1	–	–
< 0.1	< 0.1	< 0.1	< 0.1	< 0.1	< 0.1	–	–	–	–	–	–	CC1(NC2CCN(c3ccc(-c4ccc(-c5cn[nH]c5)cc4O)nn3)C2)CC1 (stereo not drawn) [Compound 107, 2-(6-{3-[(1-methylcyclopropyl)amino]pyrrolidin-1-yl}pyridazin-3-yl)-5-(1H-pyrazol-4-yl)phenol]	< 0.1	< 0.1	–	–
0.1 to 1	< 0.1	< 0.1	0.1 to 1	0.1 to 1	< 0.1	–	–	–	–	–	–	Oc1cc(-c2cn[nH]c2)ccc1-c1ccc(N2CCC(NCC3CC3)C2)nn1 (stereo not drawn) [Compound 108, 2-(6-{3-[(cyclopropylmethyl)amino]pyrrolidin-1-yl}pyridazin-3-yl)-5-(1H-pyrazol-4-yl)phenol; methane]	< 0.1	0.1 to 1	–	–
